Reference: patent US4324788A, “Alkoxyalkylidenhydrazinopridazines and process for their preparation” (I.S.F. S.p.A., priority 1979, dated 1982)
Structures can show the parent of a compound that is named as a salt. Where two headings read alike, the source gives them in different places.

Experiments:
[1] = system: genetically hypertensive rats; experiment: Arterial pressure and heart rate per os in genetically hypertensive rats (SHR); assay type: in vivo, rat (genetically hypertensive; conditions: for HR DE25 (ED25, dose giving an increase of the heart rate of 25%): > = no increase of the heart rate at the maximal tested dose; for ED25: po, read-out: BP DE25 (ED25, dose giving a drop of the blood pressure of 25%)
Source text: activity on the arterial pressure and on the heart rate has been studied per os in genetically hypertensive rats according to the method described in Pharm. Research Comm.

strips of rabbit aorta = experiment: Spasmolytic activity in vitro on strips of rabbit aorta with potassium chloride induced spasm; assay type: cell-based; conditions: Oryctolagus cuniculus, spasm with 30 mM potassium chloride, read-out: EC50 (relaxing 50% the strip of rabbit aorta)
Method: spasmolytic activity is determined evaluating the direct relaxant effect on the vasal smooth muscle in vitro on strips of rabbit aorta in which spasm was induced by potassium chloride according to the method described in Journ. of Pharm. and Exper. […] The products were added at sequentially cumulative molar doses and their activity indicated as Effective Concentration (EC50).

in vivo = conditions: mouse, ip
[2] = system: guinea-pig isolated atria; conditions: isoprenaline agonist, product at 10^-4 M
[3] = SHR rat, per os, at the moment of maximum effect

Row | Compound | HR DE25 (ED25, dose giving an increase of the heart rate of 25%) ([1]; SHR rat, per os) | ED25 [1, 3] | EC50 (strips of rabbit aorta) | LD50 (in vivo) | DR4 (dose ratio of agonist EC50 in the presence and in the absence of the product) [2] | ED25 ([1]; Rattus norvegicus)
1 | CC(C)=NNc1ccc(OCC(O)CNC(C)C)nn1.Cl.Cl (stereo not drawn) [3-(3-Isopropylamino-2-hydroxypropoxy)-6-isopropylidenhydrazinopyridazine dihydrochloride] | > 100 mg/kg/os | 350 mg/kg | 1700 µM | 500 mg/kg | 77 | 
2 | CC(C)=NNc1ccc(OCC(O)CNC(C)(C)C)nn1 (stereo not drawn) [3-(3-t.Butylamino-2-hydroxypropoxy)-6-isopropylidenhydrazinopyridazine dihydrochloride] | > 100 mg/kg/os | 50 mg/kg |  | 500 mg/kg | 78 | 
3 | CCC(C)NCC(O)COc1ccc(NN=C(C)C)nn1.Cl.Cl (stereo not drawn) [3-[3-(2-butyl)amino-2-hydroxypropoxy]6-isopropylidenhydrazinopyridazine dihydrochloride] | > 50 mg/kg/os | 25 mg/kg |  | 300 mg/kg | 72 | 
4 | CC(C)=NNc1ccc(OCC(O)CNC(C)CCc2ccccc2)nn1.Cl.Cl (stereo not drawn) [3-[3-(4-phenyl-2-butyl)amino-2-hydroxypropoxy]6-isopropylidenhydrazinopyridazine dihydrochloride] | > 40 mg/kg/os | 17 mg/kg |  | 200 mg/kg | 80 | 
5 | COc1ccc(CCNCC(O)COc2ccc(NN=C(C)C)nn2)cc1OC.Cl.Cl (stereo not drawn) [3-{3[2(3,4-dimethoxyphenyl)ethyl]amino-2-hydroxypropoxy}6-isopropylidenhydrazinopyridazine dihydrochloride] | > 60 mg/kg/os | 39 mg/kg |  | 300 mg/kg | 531 | 
6 | NNc1nncc2ccccc12 [Hydralazine, reference compound] | 6.0 mg/kg/os | 8.1 mg/kg | 680 µM |  | 1 | 
7 | CC(CCc1ccccc1)NCC(O)c1ccc(O)c(C(N)=O)c1 (stereo not drawn) [Labetalol, reference compound] | > 100 mg/kg/os | 400 mg/kg | > 10000 µM |  |  | 
8 | CC(C)NCC(O)COc1cccc2ccccc12 (stereo not drawn) [Propanolol, reference compound] | > 100 mg/kg/os |  |  |  |  | > 400 mg/kg
